{"source": "patent US11028088B2", "about": "“Modulators of BTK proteolysis and methods of use” (Yale University, priority 2018, dated 2021)", "key": {"C481S BTK": {"target": "C481S BTK (Homo sapiens, UniProt Q06187, C481S)", "sequence (Q06187 whole entry C481S)": "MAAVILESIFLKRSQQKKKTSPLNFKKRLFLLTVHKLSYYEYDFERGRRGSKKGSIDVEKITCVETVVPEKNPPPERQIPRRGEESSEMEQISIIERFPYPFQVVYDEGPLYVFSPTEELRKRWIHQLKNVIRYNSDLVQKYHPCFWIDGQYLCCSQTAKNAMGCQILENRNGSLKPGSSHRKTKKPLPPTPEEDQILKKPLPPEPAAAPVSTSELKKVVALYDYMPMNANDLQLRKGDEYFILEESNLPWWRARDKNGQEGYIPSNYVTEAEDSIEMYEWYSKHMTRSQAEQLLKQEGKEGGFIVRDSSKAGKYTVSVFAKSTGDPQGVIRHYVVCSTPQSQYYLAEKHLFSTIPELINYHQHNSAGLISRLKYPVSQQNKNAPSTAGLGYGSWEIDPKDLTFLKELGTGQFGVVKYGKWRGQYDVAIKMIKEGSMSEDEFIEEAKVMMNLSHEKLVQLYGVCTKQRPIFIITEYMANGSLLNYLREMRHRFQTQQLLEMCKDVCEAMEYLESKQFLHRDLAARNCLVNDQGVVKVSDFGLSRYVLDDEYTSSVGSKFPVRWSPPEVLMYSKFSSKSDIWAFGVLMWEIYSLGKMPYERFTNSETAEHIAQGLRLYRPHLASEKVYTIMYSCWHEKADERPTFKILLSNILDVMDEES", "assay": "In vitro kinase inhibition, recombinant C481S BTK, 10 μM ATP"}, "BTK": {"target": "BTK (Homo sapiens, UniProt Q06187)", "sequence (Q06187 whole entry)": "as the sequence (Q06187 whole entry C481S) above, with S481C counted along it", "assay": "BTK degradation in NAMALWA cells (immunoblot)", "assay_type": "cell-based", "parameters": "host or cells: NAMALWA", "conditions": "NAMALWA cells; for DC50: concentration needed to degrade 50% of the total pool of BTK; for Max: maximal BTK degradation, at 1.0 μM", "protocol": "NAMALWA and Jurkat cell lines were purchased from ATCC and cultured according to supplier guidelines at 37° C. […] Wild-type and C481S BTK XLA cell lines were cultured as previously described (39). Written, informed consent was obtained prior to the collection of cells from CLL patients using the IWCLL2008 criteria. Isolation of mononuclear cells from peripheral blood was prepared using density gradient centrifugation. B-cells were then negatively selected ([…] Technologies). […] They were maintained at 37° C. in 5% CO2.\nLysates were spun at 15,000×g for 10 min at 4° C. and supernatant was quantified for total protein content using the Pierce BCA Protein Assay (Thermo Fisher Scientific).\nEither anti-rabbit or anti-mouse HRP-conjugated secondary antibodies (Pierce) were incubated with the membranes for 1 h at room temperature at 1:10,000 dilutions in 5% non-fat milk in IX TBS-T. Imaging was performed using the ECL Prime chemiluminescent western blot detection reagents (Amersham) followed by visualization with the Bio-Rad ChemiDoc imaging instrument. All western blots were subsequently processed and quantified using the accompanying Bio-Rad Image Lab software. […] All antibodies were used at 1:1,000 dilutions in 5% non-fat milk in 1×TBS-Tween (TBS-T) or Blotto blocker (Thermo Scientific) unless otherwise noted in supplier specifications."}, "HER3": {"target": "T1, HER3 (Homo sapiens, UniProt P21860)", "T1 construct": "endogenous in cells; host or cells: OVCAR8", "T1 sequence (P21860 20-1342)": "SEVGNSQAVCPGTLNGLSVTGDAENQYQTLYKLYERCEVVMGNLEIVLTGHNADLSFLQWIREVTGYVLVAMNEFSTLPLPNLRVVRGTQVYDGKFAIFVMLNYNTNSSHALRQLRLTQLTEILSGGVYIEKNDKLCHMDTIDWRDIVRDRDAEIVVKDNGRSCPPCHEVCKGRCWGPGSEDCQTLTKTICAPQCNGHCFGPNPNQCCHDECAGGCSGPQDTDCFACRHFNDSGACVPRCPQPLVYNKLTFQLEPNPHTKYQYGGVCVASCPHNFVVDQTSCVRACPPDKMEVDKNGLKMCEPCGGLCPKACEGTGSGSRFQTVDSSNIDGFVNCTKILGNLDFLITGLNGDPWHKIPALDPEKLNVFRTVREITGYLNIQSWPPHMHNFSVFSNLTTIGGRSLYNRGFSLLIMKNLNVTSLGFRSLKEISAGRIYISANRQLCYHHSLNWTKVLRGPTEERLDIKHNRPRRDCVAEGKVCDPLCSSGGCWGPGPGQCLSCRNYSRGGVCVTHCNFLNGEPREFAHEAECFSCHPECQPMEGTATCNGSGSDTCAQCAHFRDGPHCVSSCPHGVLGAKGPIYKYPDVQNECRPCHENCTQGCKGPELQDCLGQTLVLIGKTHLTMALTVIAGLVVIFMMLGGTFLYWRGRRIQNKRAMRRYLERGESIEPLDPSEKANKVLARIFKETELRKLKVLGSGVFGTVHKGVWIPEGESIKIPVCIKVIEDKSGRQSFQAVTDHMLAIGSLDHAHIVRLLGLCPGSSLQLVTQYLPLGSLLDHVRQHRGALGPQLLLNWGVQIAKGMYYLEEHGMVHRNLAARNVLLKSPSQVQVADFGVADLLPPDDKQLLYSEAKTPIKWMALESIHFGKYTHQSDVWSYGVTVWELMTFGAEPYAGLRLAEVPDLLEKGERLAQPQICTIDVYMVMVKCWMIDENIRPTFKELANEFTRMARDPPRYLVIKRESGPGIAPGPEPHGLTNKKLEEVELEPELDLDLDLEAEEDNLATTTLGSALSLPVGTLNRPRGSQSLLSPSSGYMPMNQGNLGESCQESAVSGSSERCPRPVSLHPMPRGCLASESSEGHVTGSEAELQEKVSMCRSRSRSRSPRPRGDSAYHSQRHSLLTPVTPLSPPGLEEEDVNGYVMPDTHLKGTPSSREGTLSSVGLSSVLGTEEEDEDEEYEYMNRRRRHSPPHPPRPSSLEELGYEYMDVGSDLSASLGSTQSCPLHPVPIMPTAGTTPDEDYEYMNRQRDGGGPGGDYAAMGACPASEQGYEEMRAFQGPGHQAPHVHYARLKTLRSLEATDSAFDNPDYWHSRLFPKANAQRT", "assay": "HER3/ERBB3 degradation (western blot, OVCAR8 cells)", "assay_type": "cell-based", "protocol": "FIG. 10 illustrates a Western blot of Compound 102-related degradation of ERBB3.\nIn various embodiments, treatment with PROTAC was performed in one of two ways: 1) For experiments involving >16 h exposure to compound, a 1000× stock was added to cells followed by gentle agitation; 2) For shorter treatments, a 2× stock was added to an equal volume of cells to ensure uniform drug exposure. For immortalized cell lines, 2×10^6 cells per treatment condition were collected and washed once with ice cold PBS (IX), followed by lysis in buffer containing 20 mM Tris [pH 8.0], 0.25% sodium deoxycholate, 1% Triton X-100, supplemented with protease (Roche) and phosphatase inhibitors (10 mM NaF, 2 mM Na3VO4, 10 mM β-glycerophosphate, 10 mM Na-pyrophosphate). Lysates were spun at 15,000×g for 10 min at 4° C. and supernatant was quantified for total protein content using the Pierce BCA Protein Assay (Thermo Fisher Scientific). 30 μg of protein was loaded onto 12% SDS-PAGE gels or 4-15% Mini-PROTEAN TGX precast gradient gels (Bio-Rad), transferred onto nitrocellulose membranes, and probed with the specified primary antibodies overnight with rocking at 4° C. in 1×TBS-T containing 5% non-fat milk.\nEither anti-rabbit or anti-mouse HRP-conjugated secondary antibodies (Pierce) were incubated with the membranes for 1 h at room temperature at 1:10,000 dilutions in 5% non-fat milk in IX TBS-T. Imaging was performed using the ECL Prime chemiluminescent western blot detection reagents (Amersham) followed by visualization with the Bio-Rad ChemiDoc imaging instrument. All western blots were subsequently processed and quantified using the accompanying Bio-Rad Image Lab software. Primary antibodies used were: Anti-actin antibody (Cat. #MA 1-744) purchased from ThermoFisher Scientific; anti-BTK (Cat. #8547), anti-pBTK (Y223, Cat. #5082), anti-ITK (Cat. #2380), anti-GAPDH (Cat. #5179), anti-IKZF1 (Cat. #9034), and anti-IKZF3 (Cat. #15103) antibodies purchased from Cell Signaling Technology. All antibodies were used at 1:1,000 dilutions in 5% non-fat milk in 1×TBS-Tween (TBS-T) or Blotto blocker (Thermo Scientific) unless otherwise noted in supplier specifications."}, "MKK7": {"target": "T2, MKK7 (Homo sapiens, UniProt O14733)", "T2 construct": "purchased DiscoverX (KINOMEscan service)", "T2 sequence (O14733 1-419)": "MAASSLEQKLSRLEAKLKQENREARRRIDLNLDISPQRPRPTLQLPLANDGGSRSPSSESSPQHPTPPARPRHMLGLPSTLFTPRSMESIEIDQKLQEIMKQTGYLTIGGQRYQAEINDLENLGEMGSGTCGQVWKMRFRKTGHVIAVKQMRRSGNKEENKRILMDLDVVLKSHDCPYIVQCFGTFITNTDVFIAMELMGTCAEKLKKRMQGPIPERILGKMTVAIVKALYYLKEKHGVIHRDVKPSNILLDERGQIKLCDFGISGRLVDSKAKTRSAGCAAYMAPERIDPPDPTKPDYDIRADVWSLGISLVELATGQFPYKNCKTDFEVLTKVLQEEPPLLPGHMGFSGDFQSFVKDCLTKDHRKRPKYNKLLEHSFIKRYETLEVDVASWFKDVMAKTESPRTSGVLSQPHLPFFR", "assay": "KINOMEscan competition binding assay, MKK7", "conditions": "read-out: KINOMEscan percentage of control, MKK7"}, "BLK": {"target": "BLK (Homo sapiens, UniProt P51451)", "sequence (P51451 whole entry)": "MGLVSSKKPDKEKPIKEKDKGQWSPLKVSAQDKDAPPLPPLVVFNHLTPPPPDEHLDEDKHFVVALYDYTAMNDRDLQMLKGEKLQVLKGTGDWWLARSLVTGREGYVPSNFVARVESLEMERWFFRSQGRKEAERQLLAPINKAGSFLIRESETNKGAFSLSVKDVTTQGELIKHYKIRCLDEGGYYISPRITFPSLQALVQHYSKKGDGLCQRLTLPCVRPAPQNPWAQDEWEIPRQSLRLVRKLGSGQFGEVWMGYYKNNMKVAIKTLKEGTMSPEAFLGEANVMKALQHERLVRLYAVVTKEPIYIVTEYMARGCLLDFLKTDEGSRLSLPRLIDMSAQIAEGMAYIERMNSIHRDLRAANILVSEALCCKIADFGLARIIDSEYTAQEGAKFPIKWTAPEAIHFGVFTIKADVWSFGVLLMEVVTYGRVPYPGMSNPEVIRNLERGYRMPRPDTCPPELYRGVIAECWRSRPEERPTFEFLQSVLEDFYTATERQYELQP", "assay": "KINOMEscan competition binding assay, BLK", "conditions": "read-out: KINOMEscan percentage of control, BLK"}, "ITK": {"target": "T3, ITK (Homo sapiens, UniProt Q08881)", "T3 sequence (Q08881 1-620)": "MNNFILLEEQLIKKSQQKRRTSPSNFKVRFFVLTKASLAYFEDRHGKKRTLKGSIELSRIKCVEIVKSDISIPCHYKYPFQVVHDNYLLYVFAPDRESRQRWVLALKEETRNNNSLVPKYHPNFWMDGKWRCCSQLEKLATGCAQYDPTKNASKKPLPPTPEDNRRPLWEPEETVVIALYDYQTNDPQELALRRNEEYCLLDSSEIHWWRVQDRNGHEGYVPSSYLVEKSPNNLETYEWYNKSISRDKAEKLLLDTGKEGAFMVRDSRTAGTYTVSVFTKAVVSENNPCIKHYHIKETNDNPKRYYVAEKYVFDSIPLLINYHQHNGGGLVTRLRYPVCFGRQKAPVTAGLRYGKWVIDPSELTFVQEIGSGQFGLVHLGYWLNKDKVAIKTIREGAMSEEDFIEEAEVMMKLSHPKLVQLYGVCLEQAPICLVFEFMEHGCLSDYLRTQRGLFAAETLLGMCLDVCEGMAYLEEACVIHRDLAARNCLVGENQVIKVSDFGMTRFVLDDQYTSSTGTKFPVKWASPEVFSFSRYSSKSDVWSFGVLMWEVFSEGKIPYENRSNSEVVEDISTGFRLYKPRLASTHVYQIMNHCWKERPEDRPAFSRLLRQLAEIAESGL", "assay": "KINOMEscan competition binding assay, ITK", "parameters": "purchased DiscoverX (KINOMEscan service)", "conditions": "read-out: KINOMEscan percentage of control, ITK"}, "JAK3": {"target": "T4, JAK3 (Homo sapiens, UniProt P52333)", "T4 construct": "purchased DiscoverX (KINOMEscan service)", "T4 sequence (P52333 811-1124 limits assumed)": "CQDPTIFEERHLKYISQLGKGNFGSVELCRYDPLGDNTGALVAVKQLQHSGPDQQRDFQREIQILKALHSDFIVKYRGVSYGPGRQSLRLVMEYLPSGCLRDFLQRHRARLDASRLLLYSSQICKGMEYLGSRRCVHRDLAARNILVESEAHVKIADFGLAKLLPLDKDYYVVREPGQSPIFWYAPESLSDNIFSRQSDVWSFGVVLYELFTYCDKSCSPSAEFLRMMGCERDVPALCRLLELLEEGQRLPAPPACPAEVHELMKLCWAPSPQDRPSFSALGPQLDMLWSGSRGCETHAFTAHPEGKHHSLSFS", "assay": "KINOMEscan competition binding assay, JAK3", "conditions": "read-out: KINOMEscan percentage of control, JAK3"}, "TEC": {"target": "T5, TEC (Homo sapiens, UniProt P42680)", "T5 sequence (P42680 1-631)": "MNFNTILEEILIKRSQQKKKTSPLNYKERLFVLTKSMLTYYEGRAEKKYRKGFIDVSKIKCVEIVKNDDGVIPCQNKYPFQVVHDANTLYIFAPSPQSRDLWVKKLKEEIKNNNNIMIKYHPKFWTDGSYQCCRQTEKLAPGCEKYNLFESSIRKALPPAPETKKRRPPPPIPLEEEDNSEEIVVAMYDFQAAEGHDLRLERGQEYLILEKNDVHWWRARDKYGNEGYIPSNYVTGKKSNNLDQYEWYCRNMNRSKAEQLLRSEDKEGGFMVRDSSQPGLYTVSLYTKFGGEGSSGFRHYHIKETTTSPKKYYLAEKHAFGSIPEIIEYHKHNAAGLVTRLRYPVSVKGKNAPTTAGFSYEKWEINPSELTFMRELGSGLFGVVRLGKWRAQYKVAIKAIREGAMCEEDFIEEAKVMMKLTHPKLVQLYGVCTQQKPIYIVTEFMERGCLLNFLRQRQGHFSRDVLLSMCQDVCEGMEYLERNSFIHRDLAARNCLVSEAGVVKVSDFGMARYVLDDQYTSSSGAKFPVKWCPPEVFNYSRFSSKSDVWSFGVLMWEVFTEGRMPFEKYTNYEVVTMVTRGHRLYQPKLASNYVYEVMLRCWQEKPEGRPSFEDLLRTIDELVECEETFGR", "assay": "KINOMEscan competition binding assay, TEC", "conditions": "read-out: KINOMEscan percentage of control, TEC"}}, "note": "Where a name gives a salt, the structure may show the parent alone. Read-outs that look alike come from different tables or passages of the source.", "data": [{"smiles": "Nc1ncnc2c1c(-c1ccc(Oc3ccccc3)cc1)nn2C1CCNCC1", "note": "[compound 1, 3-(4-phenoxyphenyl)-1-(piperidin-4-yl)-1H-pyrazolo[3,4-d]pyrimidin-4-amine hydrochloride, reference compound]", "values": [{"measurement": "inhibition potency against C481S mutant BTK", "setting": "C481S BTK", "result": "retained inhibition potency"}]}, {"smiles": "Nc1ncnc2c1c(-c1ccc(Oc3ccccc3)cc1)nn2C1CCN(CCCCCCOCCCCCCOCC(=O)Nc2cccc3c2C(=O)N(C2CCC(=O)NC2=O)C3=O)CC1", "note": "(centres unmarked) [Compound 107, 2-(6-(6-(4-(4-amino-3-(4-phenoxyphenyl)-1H-pyrazolo[3,4-d]pyrimidin-1-yl)piperidin-1-yl)hexyloxy)hexyloxy)-N-(2-(2,6-dioxopiperidin-3-yl)-1,3-dioxoisoindolin-4-yl)acetamide]", "values": [{"measurement": "DC50", "setting": "BTK; read-out: DC50", "result": 98.5, "unit": "nM"}, {"measurement": "Max", "setting": "BTK", "result": 98, "unit": "%"}, {"measurement": "HER3 Degradation", "setting": "HER3", "result": "No"}]}, {"smiles": "Cc1ncsc1-c1ccc(CNC(=O)[C@@H]2C[C@@H](O)CN2C(=O)[C@@H](NC(=O)CCCCCOCCOCCOCCOCCOCCCCCCN2CCC(n3nc(-c4ccc(Oc5ccccc5)cc4)c4c(N)ncnc43)CC2)C(C)(C)C)cc1", "note": "[Compound 120, (2S,4R)-1-((S)-29-(4-(4-amino-3-(4-phenoxyphenyl)-1H-pyrazolo[3,4-d]pyrimidin-1-yl)piperidin-1-yl)-2,2-dimethyl-5-oxo-11,14,17,20,23-pentaoxa-4-azanonacosanecarbonyl)-4-hydroxy-N-(4-(4-methylthiazol-5-yl)benzyl)pyrrolidine-2-carboxamide]", "values": [{"measurement": "DC50", "setting": "BTK", "result": "No Degradation"}, {"measurement": "HER3 Degradation", "setting": "HER3", "result": "No"}]}, {"smiles": "Nc1ncnc2c1c(-c1ccc(Oc3ccccc3)cc1)nn2C1CCN(CCOCC(=O)Nc2cccc3c2C(=O)N(C2CCC(=O)NC2=O)C3=O)CC1", "note": "(centres unmarked) [Compound 100, 2-(2-(4-(4-amino-3-(4-phenoxyphenyl)-1H-pyrazolo[3,4-d]pyrimidin-1-yl)piperidin-1-yl)ethoxy)-N-(2-(2,6-dioxopiperidin-3-yl)-1,3-dioxoisoindolin-4-yl)acetamide]", "values": [{"measurement": "ability to degrade BTK", "setting": "BTK; dose escalation, 24 h", "result": "inability to degrade BTK"}, {"measurement": "DC50", "setting": "BTK", "result": "No Degradation (n = 4)"}, {"measurement": "HER3 Degradation", "setting": "HER3", "result": "No"}]}, {"smiles": "C=CC(=O)N1CCC[C@@H](n2nc(-c3ccc(Oc4ccccc4)cc3)c3c(N)ncnc32)C1", "note": "[ibrutinib, reference compound]", "values": [{"measurement": "remaining binding at 1 µM", "setting": "MKK7", "result": "< 10", "unit": "%"}, {"measurement": "remaining binding at 1 µM", "setting": "BLK", "result": 0.1, "unit": "%"}, {"measurement": "remaining binding at 1 µM", "setting": "ITK", "result": "< 10", "unit": "%"}, {"measurement": "remaining binding at 1 µM", "setting": "JAK3", "result": "< 10", "unit": "%"}, {"measurement": "remaining binding at 1 µM", "setting": "TEC", "result": 1.9, "unit": "%"}]}, {"smiles": "Cc1ncsc1-c1ccc(CNC(=O)[C@@H]2C[C@@H](O)CN2C(=O)[C@@H](NC(=O)COCCCCCOCCCCCCN2CCC(n3nc(-c4ccc(Oc5ccccc5)cc4)c4c(N)ncnc43)CC2)C(C)(C)C)cc1", "note": "[Compound 111, (2S,4R)-1-((S)-2-(2-(5-(6-(4-(4-amino-3-(4-phenoxyphenyl)-1H-pyrazolo[3,4-d]pyrimidin-1-yl)piperidin-1-yl)hexyloxy)pentyloxy)acetamido)-3,3-dimethylbutanoyl)-4-hydroxy-N-(4-(4-methylthiazol-5-yl)benzyl)pyrrolidine-2-carboxamide]", "values": [{"measurement": "DC50", "setting": "BTK; read-out: DC50", "result": 144, "unit": "nM"}, {"measurement": "Max", "setting": "BTK", "result": 45, "unit": "%"}, {"measurement": "HER3 Degradation", "setting": "HER3", "result": "No"}]}, {"smiles": "Cc1ncsc1-c1ccc(CNC(=O)[C@@H]2C[C@@H](O)CN2C(=O)[C@@H](NC(=O)COCCOCCOCCOCCN2CCN(C3CCC(n4nc(-c5ccc(Oc6ccccc6)cc5)c5c(N)ncnc54)CC3)CC2)C(C)(C)C)cc1", "note": "(stereo partly drawn) [Compound 114, (2S,4R)-1-((S)-17-(4-(4-(4-amino-3-(4-phenoxyphenyl)-1H-pyrazolo[3,4-d]pyrimidin-1-yl)cyclohexyl)piperazin-1-yl)-2-tert-butyl-4-oxo-6,9,12,15-tetraoxa-3-azaheptadecane)-4-hydroxy-N-(4-(4-methylthiazol-5-yl)benzyl)pyrrolidine-2-carboxamide]", "values": [{"measurement": "DC50", "setting": "BTK; read-out: DC50", "result": 248, "unit": "nM"}, {"measurement": "Max", "setting": "BTK", "result": 30, "unit": "%"}, {"measurement": "HER3 Degradation", "setting": "HER3", "result": "No"}]}]}
